Data: EP0284202A1, “Substituted hydantoin compounds” (THE WELLCOME FOUNDATION LIMITED, priority 1987, dated 1988)

Tests used:
[1] = biological target: T1, PGD₂ receptor on the human platelet (Homo sapiens, UniProt Q13258); experiment: Inhibition of ADP-induced aggregation in washed human platelets: antagonism of PGD₂ and compound A, Schild analysis; type: cell-based
T1 construct: endogenous in cells; host or cells: washed human platelets
T1 sequence (Q13258 1-359): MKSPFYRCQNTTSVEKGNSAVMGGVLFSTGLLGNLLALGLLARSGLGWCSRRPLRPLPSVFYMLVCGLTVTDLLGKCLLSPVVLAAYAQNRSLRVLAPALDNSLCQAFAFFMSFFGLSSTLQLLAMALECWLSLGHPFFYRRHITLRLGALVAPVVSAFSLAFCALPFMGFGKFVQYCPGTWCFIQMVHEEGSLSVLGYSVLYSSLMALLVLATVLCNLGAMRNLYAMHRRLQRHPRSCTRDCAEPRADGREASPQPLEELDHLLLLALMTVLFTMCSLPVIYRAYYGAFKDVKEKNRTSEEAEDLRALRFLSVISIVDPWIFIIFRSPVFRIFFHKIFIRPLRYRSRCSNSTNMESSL
Description: Washed platelet suspensions were prepared according to a modified version of the method of Vargas et al (Prostaglandins (1982) 23, 929). The suspension was then stored at 4°C for 2 hours and, before use, the following additions were made: Ca⁺⁺ʼ […], indomethacin, 5mcg ml⁻¹; and fibrinogen, 400 mcg ml⁻¹. Aggregation responses were measured using 0.5ml aliquots of the suspension maintained at 37°C and stirred with a metal bar at 900 r.p.m. in 300 BD-S Payton dual channel aggregometers and recorded on Gould BS 272 pen recorders.
Inhibition of platelet aggregation by PGD₂ and compound A were studied as follows. The prostaglandin receptor agonists were incubated in the platelet suspension for 6 minutes prior to adding ADP (5 × 10⁻⁵M). The reproducibility of the ADP-induced aggregation response was checked at intervals throughout the experiment. Antagonists were added 2 minutes before the agonist. Responses were expressed as percent inhibitions of the standard ADP-induced aggregation.
(§1) Measurement of antagonist affinity (pKB) was by Schild analysis.

rabbit jugular vein = experiment: Rabbit jugular vein relaxation: antagonism of PGD₂ and compound A; settings: potency compared with the antagonism in platelet aggregation
Description: Vascular smooth muscle relaxation in response to PGD₂ and compound A was measured as changes in isometric force. Isolated ring segments of rabbit jugular vein suspended in Kreb's buffer, gassed with 95% O₂/5% CO₂ and maintained at 37°C, were treated with: indomethacin, 1 µg ml⁻¹, and the stable thromboxane receptor antagonist BM13177 (Patscheke et al, Biomed. Biochem. Acta (1984) 43, 5321), 30µM. The experiments followed a paired curve design.
Initially, the jugular vein ring segments were subjected to a force of 0.75g, then allowed to stabilize for a period of 60 minutes during which time the preparations were washed three times. Subsequently histamine (10⁻⁶M) was added to produce tone. After establishing a stable contraction, relaxation/concentration effect curves were obtained using prostaglandin receptor agonists. Responses were expressed as per cent relaxations of the histamine-induced force. The preparations were then washed thoroughly and allowed to re-stabilise. The antagonists were then incubated for 60 minutes prior to constriction with histamine (10⁻⁶M), followed by a second determination of the prostaglandin agonist concentration effect curve.
as §1

[2] = system: prostaglandin receptors other than DP; experiment: Actions at other prostaglandin receptors (selectivity); settings: actions not observed up to this multiple

- Kb ([1]; antagonist affinity by Schild analysis, shifts of anti-aggregatory concentration effect curves for PGD₂ and compound A, human washed platelets): 0.55 nM
- Schild plot slope ([1]; anti-aggregatory concentration effect curves for PGD₂ and compound A, human washed platelets): unity
- behaviour at the PGD₂ receptor on the human platelet ([1]; human washed platelet assay, agonists PGD₂ and compound A): simple competitive antagonist
- concentrations without actions at prostaglandin receptors other than DP, relative to that required for DP receptor affinity [2]: > 1000 ×
Structure (SMILES): O=C(O)CCCCCCC1C(=O)N(Cc2ccccc2)C(=O)N1NCC(O)C1CCCCC1 (centres unmarked) [Example 3, 3-Benzyl-5-(6-carboxylhexyl)-1-(2-hydroxy-2-cyclohexylethylamino) hydantoin]
- antagonism of the relaxation effects of PGD₂ and compound A (rabbit jugular vein): antagonised with similar potencies
